The values that follow come from patent US5322772A (Children's Research Institute, priority 1991, dated 1994).

For orientation: Kd means the constant that tells how readily two partners part at equilibrium.

In assay [1] the target is FKBP. The settings on record: FKBP isolated from yeast, calf thymus and human T cells (JURKAT); cited from earlier work.
A further assay concerns 50-58 kDa protein. Kind of assay: LH-20 binding assay with purified 50-58 kDa binding protein from JURKAT cytosol. Also on record: species or system human. Particulars: for Kd: 50-58 kDa protein from peripheral blood mononuclear leukocytes and JURKAT cytosol. On the procedure:
E. The reaction mixture, typically a 100 μl aliquot run in duplicate, is poured onto a column of convenient dimension, such as 0.8×7.0 cm of a molecular sieve matrix such as LH-20 Sephadex (Pharmacia Fine Chemicals, Piscataway, N.J.).
The S-100 fraction was further filtered (0.45 μm pore size membrane, Gelman Sciences), the filtrate (2.9 mg protein) passed through a 600×7.5 nun Bio-Sil-125 HPLC exclusion column at a flow rate of 1.0 ml/minute in 10 mM phosphate buffer, pH 6.8; protein elution was monitored at 280 nm. Fractions (1 ml) were collected and analyzed for binding of ^3 H-dihydro FK-506 using the previously described LH-20 assay, Donnelly et al., 1991, above, which is herein incorporated by reference. Specific binding was determined by assaying each fraction without (total binding) and with ([…]) an excess of unlabeled FK-506.
The 58 kDa protein was purified from 1.4×10^10 human T-cells (JURKAT). The S-100 fraction (10 ml) was centrifuged at 2500×g for 1 hour at 4° C. in a 30 kDa Centriprep™ concentrator (Amicon Corp., Danvers, Ma.). The concentrate (1 ml) was diluted with 15 ml of 10 mM phosphate buffer, pH 6.8, and concentrated down to 5 ml. This step removed proteins of less than 30 kDa, i.e., cyclophilin and FKBP, from the S-100 fraction.
[…] FK-506 and CsA drugs was refocused under the same conditions, using only the ampholytes contained in the 2.7 ml fraction (diluted to 55 ml with deionized water). Focusing was complete when a constant voltage of 2200 was reached.
The 20 fractions were assayed for drug binding as above. […] This fraction (3.02 mg in 2.7 ml) was chromatographed in a Bio-Sil-125 HPLC column at a flow rate of 1.0 ml/minute in 10 mM phosphate buffer, pH 6.8. Fractions representing proteins of 50-60 kDa were screened for binding to both FK-506 and CsA.
Binding fractions were probed and chromatographed on a Beckman TSK CM-25W Spherogel column (26×4.6 mm) at a flow rate of 0.5 ml/minute in 10 mM phosphate buffer, pH 6.8. Fractions containing binding activity were probed and used for binding assays.
The binding assay was the LH-20 assay of Example 1.
The LH binding assay was used for generating the competition curve of FIG. 4.

In another assay the test system is immune responses. The settings on record: fold greater than cyclosporine A; cited from earlier work.
Assay [2] relates to 17 kDa (presumably cyclophilin) and 50 kDa cyclosporine A binding proteins. Put plainly: Binding of 3H-cyclosporine A to HPLC fractions of JURKAT S-100 cytosol (LH-20 assay). The arrangement: species or system human. Particulars: rapamycin at 70 nM; either protein (17 kDa, 50 kDa). The source says: The experimental conditions of Example 1A were repeated, except that ^3 H-cyclosporine A and unlabeled cyclosporine A were substituted for FK-506.

Assay [3] concerns experimental immunopathies. Particulars: rats; cited from earlier work.
In another assay the test system is Candida albicans. The settings on record: especially Candida albicans; cited from earlier work.
In assay [4] the target is FKBP (Homo sapiens, UniProt P62942). Particulars: cited from earlier work.
Sequence of FKBP (Homo sapiens, UniProt P62942) (P62942 whole entry): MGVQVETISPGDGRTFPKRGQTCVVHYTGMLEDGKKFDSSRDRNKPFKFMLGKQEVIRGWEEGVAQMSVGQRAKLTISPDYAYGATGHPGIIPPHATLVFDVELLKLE

Take `C=CC[C@@H]1/C=C(\C)C[C@H](C)C[C@H](OC)[C@H]2O[C@@](O)(C(=O)C(=O)N3CCCC[C@H]3C(=O)O[C@H](/C(C)=C/[C@@H]3CC[C@@H](O)[C@H](OC)C3)[C@H](C)[C@@H](O)CC1=O)[C@H](C)C[C@@H]2OC` [FK-506]: the values for the Kd on FKBP [1] and at 50-58 kDa protein were 0.4 nM and 2 nM, respectively. Besides, the “inhibition of CsA binding” value in the assay with 50-58 kDa protein (50-58 kDa protein) was “inhibited by FK-506 in a dose-dependent manner”. Also, in the assay on immune responses, the “potency of inhibiting immune responses relative to cyclosporine A” value is listed as 100-500 fold.
Regarding `CO[C@H]1C[C@@H]2CC[C@@H](C)[C@@](O)(O2)C(=O)C(=O)N2CCCC[C@H]2C(=O)O[C@H]([C@H](C)C[C@@H]2CC[C@@H](O)[C@H](OC)C2)CC(=O)[C@H](C)/C=C(\C)[C@@H](O)[C@@H](OC)C(=O)[C@H](C)C[C@H](C)/C=C/C=C/C=C/1C` [RAP, Rapamycin], the “effect on binding of cyclosporine A” value in assay [2] is “did not affect”. On 50-58 kDa protein, this molecule displayed an equilibrium dissociation constant (Kd) of 0.1 nM. Also, the “effect on binding of 3H-CsA” value in the assay on 50-58 kDa protein (RAP at 300 nM, purified 58 kDa protein) is on record as “unaffected”. For the same molecule, at 50-58 kDa protein (inhibition of specific binding of 3H-dihydro FK-506 to purified 58 kDa protein, read-out: B50 value), the IC50 amounted to 0.1 nM. Moreover, the “inhibition of specific binding of 3H-dihydro FK-506” value in the assay with 50-58 kDa protein (purified 58 kDa protein, RAP 0.005-500 nM) is “inhibited in a dose-dependent manner”. Further, the “development of experimental immunopathies and formation of IgE-like antibody” value in assay [3] is recorded as “totally prevented”. Further, the “activity against Candida species” value with Candida albicans is given as “highly active”. On FKBP [4], the “inhibition of isomerase activity of FKBP” value is “potent inhibitor”.
